In US4055640A, “Compositions and methods for controlling the growth of bacteria, fungi and algae using certain derivatives of N-(2,2-dichlorovinyl)salicylamides” (Nippon Kayaku Co., Ltd., priority 1975, dated 1977):
Where a name gives a salt, the structure may show the parent alone.

Assays:
[1] = tested on: bacteria gathered from circular water system; assay: Degree of propagation on slime test boards (Example 27); type: cell-based; conditions: shaking culture for 2 days
Summary of the method: (§1)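 Wood slime test boards were soaked in Waxman's liquid medium holding 0.02 part active compound (as 10% water-soluble concentrate) per 100 parts medium. Medium was inoculated with bacteria from a circular water system, fungi or green algae and shake-cultured 2 days at 27°-34° C. Propagation on the boards was scored with symbols.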

[2] = tested on: green algae; assay: as above; type: cell-based; conditions: same method, shaking culture for 2 days
Summary of the method: as §1

[3] = tested on: fungi; assay: as above; type: cell-based; conditions: same method, shaking culture for 2 days
Summary of the method: as §1

[4] = tested on: summer orange seedlings; assay: Phytotoxicity on summer orange seedlings (Experimental Example 6); type: in vivo; conditions: 1,000 ppm
[5] = tested on: Staphylococcus oureus; assay: Region of growth-inhibition around treated cotton cloth (Example 26); type: cell-based; conditions: emulsifiable concentrate diluted 100 times
Method: (§2) The emulsifiable concentrates which were prepared by Example 20 were diluted with water 100 times to form an emulsion. A cloth of cotton was soaked into each emulsion for 2 minutes. The clothes were dried at room temperature and cut into a square of which a side was 1 cm long. Each kind of test bacteria and fungi was inoculated, separately, on plates of potato-agar and one square cloth placed on each of such plates. Test bacteria and fungi were cultivated at 28° C for 4 days. The width of the region of growth-inhibition which was formed a circumference of the cloth was measured.

[6] = tested on: Bacillus subtilis; assay: as above; type: cell-based; conditions: emulsifiable concentrate diluted 100 times
Method: as §2

[7] = tested on: Aspergillus niger; assay: as above; type: cell-based; conditions: emulsifiable concentrate diluted 100 times
Method: as §2

[8] = tested on: Penicillium Citrinum; assay: as above; type: cell-based; conditions: emulsifiable concentrate diluted 100 times
Method: as §2

[9] = tested on: Fusarium wilt of cucumber; assay: Exterminating test on Fusarium wilt of cucumber (Experimental Example 4); type: in vivo, Fusarium oxysporum f, cucumerinum; conditions: Fusarium, soil, 336 h, 500 ppm, soil drench 100 ml per pot, two weeks; read-out: Percentage of healthy seedlings
Summary of the method: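 Pots of steam-sterilized soil mixed with 20 g infested soil, sown with 18 cucumber seeds (Tokiwazibai), drenched with 100 ml aqueous suspension of 80% wettable powder. Benlate 50% wettable powder run as control. Disease scored two weeks after planting as percentage of healthy seedlings.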

[10] = tested on: Aspergillus niger, Penicillium citrinum, Cladosporium harbarum and chaetomium globosum; assay: Degree of growth inhibition of fungi on treated beach plates (Example 25); type: cell-based; design: scale not given here; conditions: numerical rating, 2 weeks
Summary of the method: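 Beech plates 5 cm square and 5 mm thick were dipped for 2 min in emulsifiable concentrate diluted 400- and 800-fold in water, then dried 24 h at room temperature. Plates were set on agar, sprayed with fungal spore suspensions and incubated 2 weeks at 28 °C and 95% humidity; growth inhibition was scored on a numerical rating.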

[11] = tested on: fungi in the paints or the cutting oil; assay: Growth of fungi in paints or cutting oil (Example 11); conditions: oil soluble concentrate, 0.1%
Method: The above ingredients were mixed. An oil soluble concentrate was obtained. In the form of the oil soluble concentrate, Compound No. 1 was added to paints or the cutting oil in an amount of 0.1%.

[12] = acute oral toxicity against a mouse; conditions: in vivo
[13] = tested on: Bacteria, fungi and slime; assay: Inhibition of bacteria, fungi and slime in use (Example 13); conditions: water soluble concentrate; 10-20 ppm in water, 0.01%-0.1% in pastes
Method: Before application, the concentrate was diluted 500-1000 times with water and sprayed on the inside of cotes to prevent the growth of bacterial and fungi.
The solution was added to water in circular water systems to inhibit the growth of slime. The concentration of Compound No. 20 in the water was 10-20 ppm.
An amount from 0.01%-0.1% of Compound No. 20 as the solution was added to pastes or binding agents to prevent rottenness of them.

[14] = tested on: Bacillus subtilis; assay: Growth inhibition zone around treated cotton cloth (Example 18); type: cell-based; conditions: emulsifiable concentrate diluted 1000 times
Method: as §2, with “by Example 10 were diluted” for “by Example 20 were diluted”, “with water 1000 times to” for “with water 100 times to”, “was inoculated, separately on plates” for “was inoculated, separately, on plates”, “square cloth was placed on” for “square cloth placed on”, “cloth was examined.” for “cloth was measured.”

[15] = tested on: Aspergillus niger; assay: as above; type: cell-based; conditions: emulsifiable concentrate diluted 1000 times
Method: as §2, with “by Example 10 were diluted” for “by Example 20 were diluted”, “with water 1000 times to” for “with water 100 times to”, “was inoculated, separately on plates” for “was inoculated, separately, on plates”, “square cloth was placed on” for “square cloth placed on”, “cloth was examined.” for “cloth was measured.”

[16] = tested on: Penicillium Citrinum; assay: as above; type: cell-based; conditions: emulsifiable concentrate diluted 1000 times
Method: as §2, with “by Example 10 were diluted” for “by Example 20 were diluted”, “with water 1000 times to” for “with water 100 times to”, “was inoculated, separately on plates” for “was inoculated, separately, on plates”, “square cloth was placed on” for “square cloth placed on”, “cloth was examined.” for “cloth was measured.”

[17] = tested on: Staphylococcus aureus; assay: as above; type: cell-based; conditions: emulsifiable concentrate diluted 1000 times
Method: as §2, with “by Example 10 were diluted” for “by Example 20 were diluted”, “with water 1000 times to” for “with water 100 times to”, “was inoculated, separately on plates” for “was inoculated, separately, on plates”, “square cloth was placed on” for “square cloth placed on”, “cloth was examined.” for “cloth was measured.”

[18] = tested on: Aspergillus niger, Penicillium citrinum, Cladosporium harbarum and chaetomium globosum; assay: Degree of growth inhibition of fungi on treated beach plates (Example 17); type: cell-based; design: scale not given here; conditions: numerical rating, 2 weeks
Summary of the method: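 Beech plates were dipped for 2 minutes in emulsifiable concentrate diluted 400- and 800-fold in water, then dried for 24 hours. They were laid on agar and sprayed with spores of each fungus, then incubated at 95% humidity and 28° C for 2 weeks. Growth inhibition was scored on a numerical rating scale.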

Row | Structure (SMILES) | Degree of propagation [1] | Degree of propagation [2] | Degree of propagation [3] | Phytotoxicity [4] | width of the region of growth-inhibition [5] [mm] | width of the region of growth-inhibition [6] [mm] | width of the region of growth-inhibition [7] [mm] | width of the region of growth-inhibition [8] [mm] | pest or weed control at 500 ppm [9] [%] | Degree of growth inhibition ([10]; 0.0125 %) | Degree of growth inhibition ([10]; 0.025 %) | growth of fungi in the paints or the cutting oil [11] | LD50 [12] [mg/kg] | inhibition of bacteria, fungi and slime [13] | width of the growth inhibition zone [14] [mm] | width of the growth inhibition zone [15] [mm] | width of the growth inhibition zone [16] [mm] | width of the growth inhibition zone [17] [mm] | Degree of growth inhibition ([18]; 0.0125 %) | Degree of growth inhibition ([18]; 0.025 %)
1 | CC(=O)Oc1ccccc1C(=O)NC=C(Cl)Cl [Compound No. 6, O-acetyl-N-(2,2-dichlorovinyl) salicylamide] | - | - | - | Nil | 7 | 9 | 5 | 7 | 83 | 3 | 3 |  |  |  |  |  |  |  |  | 
2 | O=C(NC=C(Cl)Cl)c1ccccc1O [Compound No. 1, N-(β,β-dichlorovinyl) salicylamide] |  |  |  | Nil |  |  |  |  |  |  |  | controlled | > 6000 |  |  |  |  |  |  | 
3 | O=C(NC=C(Cl)Cl)c1ccccc1O [Compound No. 20, sodium salt of N-(β,β-dichlorovinyl) salicylamide] |  |  |  |  |  |  |  |  |  |  |  |  |  | inhibited for a long time | 8 | 6 | 7 | 7 | 3 | 3
